# Where “and” joins values, the source holds several entries; their conditions need not be identical. Equal values may be shown once. Toxic doses and inconclusive results are not listed.
# Tested on: CD2F1 mice, L1210 leukemia ip, survival T/C
# Assay: NCI In Vivo Anticancer Drug Screen. Data for tumor model L1210 Leukemia (intraperitoneal) in CD2F1 (CDF1) mice
# Details: higher = longer survival
# Procedure, shortened: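 In this screen, transplantable tumors were grown in mice given either the compound or its vehicle. Results were expressed as the treated measurement relative to the control measurement.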
smiles,measurement,setting,value
CNNCc1ccc(C(=O)NC(N)=O)cc1,T/C,"endpoint: mean survival time, dose: 8.0 mg/kg/injection, schedule: Q03HX024 (ip), vehicle: saline",124 % of control
same,T/C,"endpoint: mean survival time, dose: 16.0 mg/kg/injection, schedule: Q01DX005 (iv), vehicle: saline",123 % of control
same,T/C,"endpoint: mean survival time, dose: 16.0 mg/kg/injection, schedule: Q03HX008 (ip), vehicle: saline",112 % of control
same,T/C,"endpoint: mean survival time, dose: 16.0 mg/kg/injection, schedule: Q03HX016 (ip), vehicle: saline",110 % of control
same,T/C,"endpoint: mean survival time, dose: 16.0 mg/kg/injection, schedule: Q03HX024 (ip), vehicle: saline",124 % of control
same,T/C,"endpoint: mean survival time, dose: 32.0 mg/kg/injection, schedule: Q01DX005 (iv), vehicle: saline",119 % of control
same,T/C,"endpoint: mean survival time, dose: 32.0 mg/kg/injection, schedule: Q01DX008 (ip), vehicle: saline",119 % of control
same,T/C,"endpoint: mean survival time, dose: 32.0 mg/kg/injection, schedule: Q03HX008 (ip), vehicle: saline",115 % of control
same,T/C,"endpoint: mean survival time, dose: 32.0 mg/kg/injection, schedule: Q03HX016 (ip), vehicle: saline",120 % of control
same,T/C,"endpoint: mean survival time, dose: 64.0 mg/kg/injection, schedule: Q01DX005 (iv), vehicle: saline",112 % of control
same,T/C,"endpoint: mean survival time, dose: 64.0 mg/kg/injection, schedule: Q03HX008 (ip), vehicle: saline",117 % of control
same,T/C,"endpoint: mean survival time, dose: 64.0 mg/kg/injection, schedule: Q04DX003 (ip), vehicle: saline",121 % of control
same,T/C,"endpoint: mean survival time, dose: 128.0 mg/kg/injection, schedule: Q01DX001 (ip), vehicle: saline",107 % of control
same,T/C,"endpoint: mean survival time, dose: 128.0 mg/kg/injection, schedule: Q01DX001 (iv), vehicle: saline",103 % of control
same,T/C,"endpoint: mean survival time, dose: 128.0 mg/kg/injection, schedule: Q01DX001 (oral), vehicle: saline",114 % of control
same,T/C,"endpoint: mean survival time, dose: 128.0 mg/kg/injection, schedule: Q01DX005 (iv), vehicle: saline",122 % of control
same,T/C,"endpoint: mean survival time, dose: 128.0 mg/kg/injection, schedule: Q01DX009 (oral), vehicle: saline",164 % of control
same,T/C,"endpoint: mean survival time, dose: 128.0 mg/kg/injection, schedule: Q04DX003 (ip), vehicle: saline",118 % of control
same,T/C,"endpoint: mean survival time, dose: 128.0 mg/kg/injection, schedule: Q08DX002 (ip), vehicle: saline",116 % of control
same,T/C,"endpoint: mean survival time, dose: 222.0 mg/kg/injection, schedule: Q01DX Z (ip), vehicle: saline",162 % of control
same,T/C,"endpoint: mean survival time, dose: 256.0 mg/kg/injection, schedule: Q01DX001 (ip), vehicle: saline",120 % of control
same,T/C,"endpoint: mean survival time, dose: 256.0 mg/kg/injection, schedule: Q01DX001 (iv), vehicle: saline",106 % of control
same,T/C,"endpoint: mean survival time, dose: 256.0 mg/kg/injection, schedule: Q01DX001 (oral), vehicle: saline",117 % of control
same,T/C,"endpoint: mean survival time, dose: 256.0 mg/kg/injection, schedule: Q01DX009 (oral), vehicle: saline",169 % of control
same,T/C,"endpoint: mean survival time, dose: 256.0 mg/kg/injection, schedule: Q04DX003 (ip), vehicle: saline",121 % of control
same,T/C,"endpoint: mean survival time, dose: 256.0 mg/kg/injection, schedule: Q08DX002 (ip), vehicle: saline",123 % of control
same,T/C,"endpoint: mean survival time, dose: 333.0 mg/kg/injection, schedule: Q01DX Z (ip), vehicle: saline",120 % of control
same,T/C,"endpoint: mean survival time, dose: 512.0 mg/kg/injection, schedule: Q01DX001 (ip), vehicle: saline",124 % of control
same,T/C,"endpoint: mean survival time, dose: 512.0 mg/kg/injection, schedule: Q01DX001 (iv), vehicle: saline",114 % of control
same,T/C,"endpoint: mean survival time, dose: 512.0 mg/kg/injection, schedule: Q08DX002 (ip), vehicle: saline",118 % of control
Cc1ccc2nc(-c3ccc(NC(=O)Nc4cccc(F)c4)cc3)sc2c1,T/C,"endpoint: mean survival time, dose: 50.0 mg/kg/injection, schedule: Q01DX009 (ip), vehicle: saline with Tween-80",97 % of control
same,T/C,"endpoint: mean survival time, dose: 100.0 mg/kg/injection, schedule: Q01DX009 (ip), vehicle: saline with Tween-80",97 % of control
CCOC(=O)NC1CCc2cc(OC)c(OC)c(OC)c2-c2ccc(OC)c(=O)cc21 (stereo unspecified),T/C,"endpoint: median survival time, dose: 2.5 mg/kg/injection, schedule: Q01DX005 (ip), vehicle: Klucel (hydroxypropylcellulose) (HPC)",171 % of control
same,T/C,"endpoint: median survival time, dose: 3.0 mg/kg/injection, schedule: Q01DX005 (ip), vehicle: Klucel (hydroxypropylcellulose) (HPC)",164 % of control
same,T/C,"endpoint: median survival time, dose: 5.0 mg/kg/injection, schedule: Q01DX005 (ip), vehicle: Klucel (hydroxypropylcellulose) (HPC)",179 % of control and 187 % of control
same,T/C,"endpoint: median survival time, dose: 8.33 mg/kg/injection, schedule: Q01DX005 (ip), vehicle: Klucel (hydroxypropylcellulose) (HPC)",107 % of control
O=C(O)C1CC1,T/C,"endpoint: mean survival time, dose: 100.0 mg/kg/injection, schedule: Q01DX001 (ip), vehicle: saline",96 % of control
same,T/C,"endpoint: mean survival time, dose: 200.0 mg/kg/injection, schedule: Q01DX001 (ip), vehicle: saline",108 % of control
Cc1cc(C)nc(C)c1.[Cl-].[Cl-].[Cl-].[Cl-].[Pt+2],T/C,"endpoint: mean survival time, dose: 25.0 mg/kg/injection, schedule: Q04DX003 (ip), vehicle: saline with Tween-80",98 % of control
same,T/C,"endpoint: mean survival time, dose: 50.0 mg/kg/injection, schedule: Q04DX003 (ip), vehicle: saline with Tween-80",101 % of control
same,T/C,"endpoint: mean survival time, dose: 100.0 mg/kg/injection, schedule: Q04DX003 (ip), vehicle: saline with Tween-80",103 % of control

# From PubChem BioAssay AID256 (DTP/NCI, 2004)
